Measured values reported in patent EP0454429B1, “Use of 15-dehydroxy-16-oxoprostaglandin derivatives in the treatment of allergic diseases” (R-TECH UENO, LTD., priority 1990, dated 1991).

Key:
contraction by histamine = experiment: Inhibition of histamine-induced contraction of isolated guinea pig trachea (Test Example 1); format: cell-based; details: guinea pig trachea contracted with 5.4x10^-4M histamine, cumulative addition every 6 minutes; for IC20: concentration for 20% inhibition; for IC50: concentration for 50% inhibition
Description: (§1) A guinea pig was sacrificed by knocking at the occipital region and then bleeding from the femoral artery. The trachea was removed, incised in the longitudinal direction at the opposite side of the smooth muscle and sectioned into sections of about 1 to 1.5 cm along the cartilage. Seven or eight sections were linked by a silk thread in chains. The sample was stretched by 1.0 g of tension in 15 ml of Tyrode's solution at 37°C under flow of the mixed gas of 95% O2 and 5% CO2. After resting for 60 to 90 minutes for stabilization, the sample was contracted with 5.4x10^-4M histamine and when the construction reached the constant value, the test compounds were accumulately added every 6 minutes, and the change in tension was recorded on a recorder (T-626DS, Nippon Denshi Kagaku, Japan) through an isometric transducer (1T-1, LABOX, Fukukensha, Japan).
Rate of inhibition by the test compounds of the contraction by histamine was expressed in percent, and IC20 and IC50 values were calculated as the concentration of the test compounds for 20% and 50% […], respectively.

[1] = tested on: increase in the airway resistance by histamine; experiment: Inhibition of histamine-induced increase in airway resistance, test compound i.v. (Test Example 2); format: in vivo; details: one minute before histamine (3 µg/kg), anesthetized guinea pig
Description: A guinea pig was intraperitoneally anesthetized with 1.0-1.2 g/kg urethane (Katayama Kagaku, Japan). The test animal was cannulated through the common carotid […] and the trachea, and then pancuronium bromide was intravenously administered at 0.3 mg/kg to stop the spontaneous respiration of the test animal. The animal was artificially respired using a respirater for a small animal (SN-480-7, Shinano Seisakusho, Japan) and bronchospasm transducer (7020, Ugo Basile). The overflowing air at 6-9 ml(air)/time, 60 times/minute and loading pressure of 10 cm H2O was recorded on a recorder (056-1001, Hitachi Seisakusho, Japan) through the bronchospasm transducer. Histamine (3 µg/kg) was administered several times at 30 minutes intervals, and when the increase in the airway resistance by histamine was established, the test compounds were intravenously administered one minute before the administration of histamine (3 µg/kg) to induce airway constriction. The difference of airway resistance before and after the administration of histamine was taken as 100% and activity of test compounds was shown in terms of percent inhibition of the increase due to histamine.

[2] = tested on: contraction by leukotriene D4; experiment: Inhibition of leukotriene D4-induced contraction of isolated guinea pig trachea (Test Example 3); format: cell-based; details: guinea pig trachea contracted with 1x10^-8M leukotriene D4; for IC20: concentration for 20% inhibition; for IC50: concentration for 50% inhibition
Description: as §1, with “1x10^-8M leukotriene D4” for “5.4x10^-4M histamine”, “Densi” for “Denshi”
Rate of inhibition by the test compounds of the contraction by leukotriene D4 was expressed in percent, and IC20 and IC50 values were calculated as the concentration of the test compounds for 20% and 50% […], respectively.

[3] = tested on: platelet activating factor (PAF); experiment: Inhibition of PAF-induced increase in airway resistance, test compound i.v. (Test Example 4); format: in vivo, guinea pig; details: dose 10µg/kg i.v. one minute before PAF (50 ng/kg i.v.), n=2
Description: A guinea pig was intraperitoneally anesthetized with 1.2 g/kg urethane (Katayama Kagaku, Japan). The test animal was cannulated through the common carotid […] and the trachea, and then pancuronium bromide was intravenously administered at 0.3 mg/kg to stop the spontaneous respiration of the test animal. The animal was artificially respired using a respirater for a small animal (SN-480-7, Shinano Seisakusho, Japan) and bronchospasm transducer (7020, Ugo Basile). The overflowing air at 7-10 ml(air)/time, 60 times/minute and loading pressure of 10 cm H2O was recorded on a recorder (056-1001, Hitachi Seisakusho, Japan) through the bronchospasm transducer. When the base line was stabilized, platelet activating factor (PAF) (50 ng/kg) was intravenously administered. The increase in the airway resistance was determined taking the value at the complete occlusion of trachea as the maximum contraction (100%). The test compounds were intravenously administered one minute before the administration of PAF. The difference of airway resistance before and after the administration of 50 ng/kg PAF was taken as 100% and activity of test compound was shown in terms of percent inhibition of the increase due to PAF.

conjunctive = experiment: Histamine-induced conjunctival inflammation and dye leakage, ophthalmic administration (Test Example 6); format: in vivo, Female Wistar rats; set-up: Weight of Conjunctive (Mean±S.D.): dose or concentration left out as unconfirmed; details: for Weight of Conjunctive (Mean±S.D.): 3 minutes before Evans Blue and subconjunctival histamine, 30 minutes, control 41.5±2.0; for Dye (µg/part): dye extracted from conjunctive, absorption at 625 nm, control 8.26±0.52
Description: Female Wistar rats (weight: 90g) were used as the test animals. The animals received the test compounds and, 3 minutes after, 0.5ml of 0.5% Ebans Blue/physiological saline was administered through the caudal vein. Then, immediately after, 0.05ml of 0.1% histamine hydrochloride/physiological saline was injected subconjunctivally at an upper eyelid. After 30 minutes, the animals were sacrificed by vertebral cervial dislocation and the scalp was peeled away towards the eyelid. Part of skin and conjunctive showing inflammation was cut off and weighed. Then, said conjunctive was minced and extracted overnight with 4ml […] at 40°C with shaking. The dye in the conjunctive was assayed by measuring absorption of the extract at 625 nm. […] Control animals received the same amount of the physiological saline.

PCA reaction = experiment: Passive cutaneous anaphylaxis (PCA) reaction in sensitized rats (Test Example 7); format: in vivo, Male Crj Wistar rats; details: Dose 10 µg/kg intravenously, n=16
Description: Male Crj Wistar rats (7 weeks old) were passively sensitized by injecting 50µl of diluted rat anti-EA (egg albumin) antiserum at the dorsal skin.
After 48 hours, 1 ml of a mixture consisting of equal amount of 1% EA (egg albumin) as the antigen in physiological saline and 1% Evans Blue in physiological saline was injected in the caudal vein to elicit the PCA reaction. After 30 minutes, the animals were killed by deep anesthetization and dorsal skin was ablated. The major and minor axes of reacted part, i.e. pigment-leaking site were measured and the average value of them was taken as the diameter, from which the area was calculated.
Then said site was punched and amount of the pigment was measured by the following method.
The punched site was dipped in 1ml of 1N aqueous potassium hydroxide and allowed to stand overnight at 37°C. Then 9ml of a mixed solution of 0.6N H3PO4: acetone (5:13) was added and the mixture was centrifuged. The supernatant was assayed for absorption at 620 nm using an absorption spectrophotometer. The amount of the pigment was determined by calibration curve which was obtained using the known amounts of the pigment.
The test compound was dissolved in the physiological saline and intravenously administered. The control animals intravenously received the physiological saline (5ml/kg) alone.

Row | Structure (SMILES) | IC50 (contraction by histamine; Cavia porcellus, 0.1 h) [nM] | IC50 ([2]; Cavia porcellus) [nM] | Weight of Conjunctive (Mean±S.D.) (conjunctive) [mg] | IC20 (contraction by histamine; Cavia porcellus, 0.1 h) [nM] | IC20 ([2]; Cavia porcellus) [nM] | Dye (µg/part) (conjunctive) | further results
1 | CCCC(F)(F)C(=O)CCCC1C(=O)CC(O)C1C/C=C\CCCC(=O)OC (stereo not drawn) [Test Compound 8, 13,14-dihydro-15-dehydroxy-16-oxo-17,17-difluoro-PGD2 methyl ester] | – | – | 32.7 ± 1.8 | – | – | – | IC20 (contraction by histamine): 100 nM; IC50 (contraction by histamine): 350 nM; Inhibition (%) ([1]; dose 5 µg/kg): 93%; IC20 [2]: 40 nM; IC50 [2]: 120 nM; Increase in Resistance (%,mean) ([3]; complete occlusion of trachea = 100%, control 74.5): 11.5%; Inhibition (%) [3]: 84.6%; Amount(µg/site) (PCA reaction; amount of pigment in punched site, absorption at 620 nm, control 104.9±45.4): 38.0±15.9 µg/site; Area(mm^2) (PCA reaction; area of pigment-leaking site, 30 minutes after antigen, control 56.9±19.4): 33.7±7.5 mm^2
2 | CCCC(F)(F)C(=O)CCC[C@H]1[C@H](O)CC(=O)[C@@H]1C/C=C\CCCC(=O)OC [compound 1] | 1200 | 500 | 36.3 ± 2.1 | 300 | 160 | 7.13±0.65 | Inhibition (%) ([1]; dose 10 µg/kg): 92%
3 | CCCC(F)(F)C(=O)CCC[C@H]1[C@H](O)CC(=O)[C@@H]1C/C=C\CCCC(=O)O [compound 2] | 2000 | 1000 | – | 300 | 300 | – | Inhibition (%) ([1]; dose 10 µg/kg): 78%
4 | CCCC(F)(F)C(=O)CCC[C@H]1C(=O)C[C@H](O)[C@@H]1C/C=C\CCCC(=O)OC [compound 8] | – | – | 38.5 ± 2.0 | – | – | 7.69±0.71 | –
5 | CCCC(F)(F)C(=O)CCC[C@H]1C=CC(=O)[C@@H]1C/C=C\CCCC(=O)OC [compound 9] | – | – | 38.9 ± 1.8 | – | – | 7.49±0.67 | –

Continued, in another order:

Row | IC50 (contraction by histamine; Cavia porcellus, 0.1 h) [nM] | IC50 ([2]; Cavia porcellus) [nM] | Structure (SMILES) | Weight of Conjunctive (Mean±S.D.) (conjunctive) [mg] | IC20 (contraction by histamine; Cavia porcellus, 0.1 h) [nM] | IC20 ([2]; Cavia porcellus) [nM] | Dye (µg/part) (conjunctive) | further results
6 | 2000 | 600 | CCCC(F)(F)C(=O)CCC[C@H]1[C@H](O)CC(=O)[C@@H]1C/C=C\CCCC(=O)OC(C)C [compound 3] | – | 500 | 180 | – | –
7 | – | 25000 | CCCC(F)(F)C(=O)CCC[C@H]1[C@H](C)CC(=O)[C@@H]1C/C=C\CCCC(=O)OC [compound 4] | – | 10000 | 7000 | – | –
8 | – | 20000 | CCCC(F)(F)C(=O)CCC[C@@H]1[C@@H](C/C=C\CCCC(=O)OC)[C@@H](O)C[C@H]1O [compound 7] | – | 17000 | 4000 | – | –
